Literature values in patent US20080275118A1, “HEALTH AND COSMETIC COMPOSITION AND REGIME FOR STIMULATING HAIR GROWTH AND THICKENING ON THE HEAD, INCLUDING THE SCALP, EYELASHES, AND EYEBROWS, AND WHICH DISCOURAGES HAIR LOSS” (priority 2008, published 2008).

Test system: scalp hair
Details: in man, tests carried out on the scalp; Roenigk 1988

SMILES: C=CC(O)(C/C=C/[C@H]1[C@H](O)CC(=O)[C@@H]1C/C=C\CCCC(=O)OC)CCCC (stereo partly shown) [viprostol]
- hair density: increasing hair density
